Tests used:
[1] = tested on: Jurkat; experiment: Cell proliferation modulatory activity, Jurkat; type: cell-based; conditions: Homo sapiens
[2] = molecular target: recombinant human PIM1 (Homo sapiens (Human), UniProt P11309); experiment: PIM-1 kinase activity in cell-free in vitro assay; type: biochemical; conditions: cell-free assay; for inhibition at 0.5 µM: 500 nM compound, read-out: PIM-1: % inh 500 nM
[3] = tested on: K-562; experiment: Cell proliferation modulatory activity, K-562; type: cell-based; conditions: Homo sapiens, K562; K-562 cells
[4] = tested on: HCT-116 human colorectal carcinoma cells; experiment: Cell-proliferation assay using Alamar Blue dye; type: cell-based; conditions: Homo sapiens, HCT-116, second HCT-116 column (c8); read-out: HCT-116 (uM) cell proliferation modulatory activity;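 further: cells exposed to compound for about 4 days, then Alamar Blue added and dye fluorescence read after about 4 h, compared with medium-only control wells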
[5] = molecular target: recombinant human CK2 (Homo sapiens (Human), UniProt P68400); experiment: CK2 assay (cell-free, 33P-ATP filter plate); type: biochemical; conditions: 500 nM compound, cell-free assay; read-out: CK2: % inh 500 nM
recombinant human CK2, sequence (P68400 whole entry): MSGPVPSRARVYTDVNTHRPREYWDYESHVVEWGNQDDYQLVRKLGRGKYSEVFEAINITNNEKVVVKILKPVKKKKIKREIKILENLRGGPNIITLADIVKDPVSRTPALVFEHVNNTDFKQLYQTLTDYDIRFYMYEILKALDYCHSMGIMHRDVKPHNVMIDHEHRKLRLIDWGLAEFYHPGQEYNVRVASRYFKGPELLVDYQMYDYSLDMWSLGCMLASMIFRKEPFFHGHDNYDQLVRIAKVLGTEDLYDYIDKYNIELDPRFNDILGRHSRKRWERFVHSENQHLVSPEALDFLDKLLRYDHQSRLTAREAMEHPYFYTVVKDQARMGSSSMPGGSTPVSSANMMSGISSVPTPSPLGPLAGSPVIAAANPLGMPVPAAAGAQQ
recombinant human CK2, sequence (P67870 whole entry partner): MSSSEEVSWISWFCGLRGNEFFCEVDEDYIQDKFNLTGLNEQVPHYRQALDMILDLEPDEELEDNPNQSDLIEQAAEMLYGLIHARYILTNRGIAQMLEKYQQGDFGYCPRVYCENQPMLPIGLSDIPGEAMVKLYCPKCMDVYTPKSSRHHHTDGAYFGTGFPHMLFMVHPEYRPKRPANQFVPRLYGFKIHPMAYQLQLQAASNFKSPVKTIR

[6] = tested on: MV-4-11; experiment: Cell proliferation modulatory activity, MV-4-11; type: cell-based; conditions: Homo sapiens, MV4-11; MV-4-11 cells

recombinant human PIM1, sequence (P11309 whole entry): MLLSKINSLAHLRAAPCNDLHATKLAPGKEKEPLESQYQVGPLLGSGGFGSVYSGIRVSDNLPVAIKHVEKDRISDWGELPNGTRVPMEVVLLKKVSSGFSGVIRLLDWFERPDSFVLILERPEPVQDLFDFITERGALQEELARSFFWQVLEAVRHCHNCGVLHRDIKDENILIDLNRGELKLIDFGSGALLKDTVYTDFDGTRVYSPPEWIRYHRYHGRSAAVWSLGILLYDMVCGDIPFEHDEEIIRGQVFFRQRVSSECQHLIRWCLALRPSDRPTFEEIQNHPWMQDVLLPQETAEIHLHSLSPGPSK

Structure (SMILES)	IC50 [1]	inhibition at 0.5 µM [2]	IC50 [3]	IC50 [4]	inhibition at 0.5 µM [5]	IC50 [6]	IC50 [2]
COCCNc1ncc2c(n1)c(Nc1ccc(F)c(Cl)c1)nc1cc(C(=O)O)ccc12	0.413 µM	22.9%	–	–	–	–	–
COC(=O)c1ccc2c(c1)nc(Nc1cccc(Cl)c1)c1nc(NCCC(N)=O)ncc12	4.41 µM	-12.6%	–	–	–	–	–
O=C(O)c1ccc2c(c1)nc(Nc1cc(F)cc(F)c1)c1nc(NC3CC3)ncc12	6.02 µM	48.9%	–	–	–	–	–
CN(C)CCNc1ncc2c(n1)c(Nc1ccc(F)c(Cl)c1)nc1cc(C(=O)O)ccc12	1.25 µM	53%	–	–	–	–	–
COC(=O)c1ccc2c(c1)nc(NCCn1cccc1)c1ccncc12	–	-34.6%	> 10 µM	9.97 µM	9.01%	2.83 µM	–
O=C(O)c1ccc2c(c1)nc(NCCn1cccc1)c1ccncc12	–	74.5%	> 10 µM	> 10 µM	99.6%	> 10 µM	0.094 µM
COC(=O)c1ccc2c(c1)nc(N(C)CCc1ccccn1)c1ccncc12	–	-5.84%	> 10 µM	> 10 µM	-3.68%	> 10 µM	–
CN(CCc1ccccn1)c1nc2cc(C(=O)O)ccc2c2cnccc12	–	3.73%	7.2 µM	0.902 µM	90.8%	1.54 µM	–
COC(=O)c1ccc2c(c1)nc(NCCCOC(C)C)c1ccncc12	–	24.2%	> 10 µM	> 10 µM	90.9%	6.42 µM	–
CC(C)OCCCNc1nc2cc(C(=O)O)ccc2c2cnccc12	–	60.8%	> 10 µM	> 10 µM	98.5%	7.01 µM	0.402 µM
COC(=O)c1ccc2c(c1)nc(NCCOC(C)C)c1ccncc12	–	39.1%	> 10 µM	> 10 µM	15.6%	2.94 µM	–
CC(C)OCCNc1nc2cc(C(=O)O)ccc2c2cnccc12	–	48.2%	> 10 µM	> 10 µM	93%	9.46 µM	–
COC(=O)c1ccc2c(c1)nc(NCCN1CCCC1)c1ccncc12	–	17.8%	1.25 µM	0.9 µM	8.15%	0.368 µM	–
O=C(O)c1ccc2c(c1)nc(Nc1cc(F)ccc1Br)c1ccncc12	–	64.5%	> 10 µM	> 10 µM	98.4%	4.13 µM	0.376 µM
NC(=O)c1cc(F)cc(Nc2nc3cc(C(=O)O)ccc3c3cnccc23)c1	–	85%	> 10 µM	> 10 µM	99.2%	> 10 µM	0.093 µM
NC(=O)c1cc(Cl)cc(Nc2nc3cc(C(=O)O)ccc3c3cnccc23)c1	–	90.5%	> 10 µM	> 10 µM	102%	> 10 µM	0.09 µM
NC(=O)c1ccc(Nc2nc3cc(C(=O)O)ccc3c3cnccc23)cc1	–	78.2%	> 10 µM	> 10 µM	-5.09%	> 10 µM	0.248 µM

Continued, values first:

IC50 [1]	inhibition at 0.5 µM [2]	IC50 [3]	IC50 [4]	inhibition at 0.5 µM [5]	IC50 [6]	IC50 [2]	Structure (SMILES)
4.53 µM	29.9%	–	–	–	–	–	CCCNc1ncc2c(n1)c(Nc1ccccc1)nc1cc(C(=O)O)ccc12
5.8 µM	19.8%	–	–	–	–	–	COCCNc1ncc2c(n1)c(Nc1ccccc1)nc1cc(C(=O)O)ccc12
7.9 µM	49.3%	–	–	–	–	–	O=C(O)c1ccc2c(c1)nc(Nc1ccccc1)c1nc(NCCCO)ncc12
2.67 µM	45.6%	–	–	–	–	–	C#Cc1cccc(Nc2nc3cc(C(=O)O)ccc3c3cnc(NCCC)nc23)c1
3.69 µM	41.6%	–	–	–	–	–	C#Cc1cccc(Nc2nc3cc(C(=O)O)ccc3c3cnc(NCCCN4CCOCC4)nc23)c1
2.53 µM	–	–	–	–	–	–	O=C(O)c1ccc2c(c1)nc(Nc1cccc(C(F)(F)F)c1)c1ncncc12
1.14 µM	85.7%	–	–	–	–	–	Nc1ncc2c(n1)c(Nc1cccc(Cl)c1)nc1cc(C(=O)O)ccc12
3.06 µM	–	–	–	–	–	–	CCNc1ncc2c(n1)c(Nc1cccc(Cl)c1)nc1cc(C(=O)O)ccc12
4.34 µM	38.8%	–	–	–	–	–	Nc1ncc2c(n1)c(Nc1ccc(F)c(Cl)c1)nc1cc(C(=O)O)ccc12
0.389 µM	2.19%	–	–	–	–	–	C#Cc1cccc(Nc2nc3cc(C(=O)O)ccc3c3cnc(NCCCOCC)nc23)c1
2.37 µM	-1.78%	–	–	–	–	–	C#Cc1cccc(Nc2nc3cc(C(=O)O)ccc3c3cnc(NCCCOC(C)C)nc23)c1
37.7 µM	–	–	–	–	–	–	NC(=O)CCNc1ncc2c(n1)c(Nc1cccc(Cl)c1)nc1cc(C(=O)O)ccc12
3.44 µM	36.5%	–	–	–	–	–	COc1cccc(Nc2nc3cc(C(=O)O)ccc3c3cnc(NC4CC4)nc23)c1
–	46.6%	> 10 µM	> 10 µM	72.4%	> 10 µM	–	C#Cc1cccc(Nc2nc3cc(C(=O)O)ccc3c3ccncc23)c1
–	9.61%	> 10 µM	> 10 µM	69.3%	5.81 µM	–	O=C(O)c1ccc2c(c1)nc(Nc1cccc(Cl)c1)c1nccnc12
–	-0.602%	> 10 µM	> 10 µM	36.5%	> 10 µM	–	O=C(O)c1ccc2c(c1)nc(Nc1ccc(F)c(Cl)c1)c1nccnc12
–	-4.59%	> 10 µM	> 10 µM	85.3%	> 10 µM	–	C#Cc1cccc(Nc2nc3cc(C(=O)O)ccc3c3nccnc23)c1
–	64.7%	> 10 µM	> 10 µM	97.5%	> 10 µM	0.321 µM	O=C(O)c1ccc2c(c1)nc(Nc1cccc(CO)c1)c1ccncc12
–	67.3%	> 10 µM	> 10 µM	95.6%	> 10 µM	0.31 µM	N#Cc1ccc(Nc2nc3cc(C(=O)O)ccc3c3cnccc23)cc1
–	85%	> 10 µM	> 10 µM	101%	3.64 µM	0.122 µM	CCc1cccc(Nc2nc3cc(C(=O)O)ccc3c3cnccc23)c1
–	72.4%	> 10 µM	> 10 µM	99.5%	3.16 µM	0.485 µM	CC(C)c1cccc(Nc2nc3cc(C(=O)O)ccc3c3cnccc23)c1
–	74.8%	> 10 µM	> 10 µM	101%	> 10 µM	0.16 µM	NC(=O)c1cccc(Nc2nc3cc(C(=O)O)ccc3c3cnccc23)c1
–	59.3%	> 10 µM	> 10 µM	98.5%	> 10 µM	0.311 µM	COc1ccc(Nc2nc3cc(C(=O)O)ccc3c3cnccc23)cc1OC
–	76%	> 10 µM	> 10 µM	101%	8.87 µM	0.157 µM	O=C(O)c1ccc2c(c1)nc(Nc1ccc3c(c1)OCO3)c1ccncc12

From US8168651B2, “Protein kinase modulators” (Cylene Pharmaceuticals, Inc., priority 2008, dated 2012)
